Results taken from patent US20260327224A1, “SUBSTITUTED PYRIDOTRIAZOLE COMPOUND, AND PREPARATION METHOD THEREFOR AND USE THEREOF” (ORIGIANT PHARMACEUTICAL CO., LTD., priority 2023, published 2026).

Test system: HT-29 cells (colon cancer cells)
Assay: In vitro assay for protection of HT-29 cells from necroptosis (TNFα/Smac mimetic/Z-VAD-FMK, CCK-8)
Type: cell-based
Settings: Homo sapiens, Protective Activity Against Necroptosis, TNFα/Smac mimetic/Z-VAD-FMK induced, 24 h
Description: Z′=1−3(SDmin+SDmax)/(AVEmax−AVEmin) • wherein: • Min is the positive control Data, and Max is the negative control DMSO Data. • SD is the standard deviation, and AVE is the average. In Vitro Assay for Protection of HT-29 Cells from Necroptosis:
1) Experimental Materials
DMEM medium was purchased from Gibco; penicillin-streptomycin was purchased from Hyclone; TNFα was purchased from Peprotech; Smac mimetic and Z-VAD-FMK were purchased from Selleck; and CCK-8 was purchased from Medchem Express.
HT-29 cells (colon cancer cells) were cultured in DMEM+10% FBS+penicillin/streptomycin. For the experiment, HT-29 cells in the logarithmic phase were collected and seeded into 96-well plates at a specific density (typically 8×10^3 cells/well for adherent cells). The cells were cultured overnight in an incubator at 37° C. with 5% CO2. On the following day, the test compound was diluted with culture medium to the corresponding concentrations and added into the 96-well plate, with 3 replicate wells for each sample. A solvent control group and a blank control group containing only culture medium were set simultaneously. The spiked cells were induced with a combination of TNFα/Smac mimetic/Z-VAD-FMK for 24 h. Subsequently, 10 μL of CCK8 solution was added to each well, and the cells were incubated in an incubator for 1-3 h. Absorbance was measured at […] using a microplate reader, and the cell necrosis protection rate of the drug was calculated using the following formula:
Cell necrosis protection rate=[(X−C0)/(C−C0)]×100% • where C, C0, and X represent the average absorbance values of the solvent control group, the blank control group, and the drug treatment group, respectively. Finally, a cell viability curve was fitted using Graphpad Prism 5.0 software, and the EC50 value of the test compound for inhibiting necroptosis was calculated.

Cn1cc(C(=O)N[C@H]2CCCc3cc(F)ccc32)c2cc(-c3ccn4nc(NC(=O)CC#N)nc4c3)ccc21 [Compound 142] gave an EC50 of 10 to 100 nM.

With C[C@H](NC(=O)c1nn(C)c2ccc(-c3ccn4nc(NC(=O)[C@H]5CCCO5)nc4c3)cc12)c1ccc(F)cc1 [Compound 193] the EC50 was < 1 nM.

C[C@H](NC(=O)c1cn(C)c2ccc(-c3ccn4nc(NC(=O)CN5CC(O)CC5=O)nc4c3)cc12)c1ccc(F)cc1 (stereo in doubt) [Compound 3] gave an EC50 of 10 to 100 nM.

CN1CCC(C(=O)Nc2nc3cc(-c4ccc5c(c4)c(C(=O)N[C@H](c4ccc(F)cc4)C(F)F)cn5C)ccn3n2)C1 (stereo partly drawn) [Compound 168] was tested, and the EC50 was < 1 nM.

For COC1CCN(CC(=O)Nc2nc3cc(-c4ccc5c(c4)c(C(=O)N[C@@H](C)c4ccc(F)cc4)cn5C)ccn3n2)C1 (stereo partly drawn) [Compound 19], the EC50 was < 1 nM.

In the case of C[C@H](NC(=O)c1cn(C)c2ccc(-c3ccn4nc(NC5CCOC5)nc4c3)cc12)c1ccc(F)cc1 (stereo partly drawn) [Compound 107], the EC50 is reported as < 1 nM.

Cn1cc(C(=O)Nc2nc3cc(-c4ccc5c(c4)c(C(=O)N[C@H]4CCCc6cc(F)ccc64)cn5C)ccn3n2)cn1 [Compound 141] was tested, and the EC50 was 1 to 10 nM.

In the case of Cn1cc(C(=O)N[C@@H](CF)c2ccc(F)cc2)c2cc(-c3ccn4nc(NC(=O)C5CC5)nc4c3)ccc21 [Compound 114], the EC50 is reported as < 1 nM.

In the case of C[C@H](NC(=O)c1cn(C)c2ccc(-c3ccn4nc(NC(=O)CN5CCOC[C@@H]5C)nc4c3)cc12)c1ccc(Cl)cc1 [Compound 82], the EC50 is reported as < 1 nM.

For Cn1cc(C(=O)N2N=CCC2c2ccc(F)cc2)c2cc(-c3ccn4nc(NC(=O)C5CCOC5)nc4c3)ccc21 (stereo not drawn) [Compound 169], the EC50 was < 1 nM.

CC(=O)Nc1nc2cc(-c3ccc4c(c3)c(C(=O)N[C@H]3CCc5cc(C#N)ccc53)cn4C)ccn2n1 [Compound 132] was tested, and the EC50 was 100 to 1000 nM.

With C[C@H](NC(=O)c1nn(C)c2ccc(-c3ccn4nc(NC(=O)N5CCOCC5)nc4c3)cc12)c1ccc(F)cc1 [Compound 195] the EC50 was < 1 nM.

C[C@H](NC(=O)c1cn(C)c2ccc(-c3ccn4nc(NC(=O)CN(C)CCO)nc4c3)cc12)c1ccc(F)cc1 [Compound 74] was tested, and the EC50 was < 1 nM.

With COC(C)C(=O)Nc1nc2cc(-c3ccc4c(c3)c(-c3nncn3C(C)c3ccc(F)cc3)cn4C)ccn2n1 (stereo not drawn) [Compound 216] the EC50 was 10 to 100 nM.

C[C@@H]1CN(CC(=O)Nc2nc3cc(-c4ccc5c(c4)c(C(=O)N[C@@H](C)c4ccc(F)cc4)cn5C)ccn3n2)C[C@H](C)O1 [Compound 46] was tested, and the EC50 was < 1 nM.

Compound COCCn1cc(C(=O)N[C@@H](CF)c2ccc(F)cc2)c2cc(-c3ccn4nc(NC(=O)N5CCOCC5)nc4c3)ccc21 [Compound 214] has an EC50 of 10 to 100 nM.

CC(C)NCC(=O)Nc1nc2cc(-c3ccc4c(c3)c(C(=O)N[C@@H](C)c3ccc(F)cc3)cn4C)ccn2n1 [Compound 67] was tested, and the EC50 was < 1 nM.

CC(c1ccc(F)cc1)n1cnc(-c2cn(C)c3ccc(-c4ccn5nc(NC(=O)C6CC6F)nc5c4)cc23)n1 (stereo not drawn) [Compound 209] showed an EC50 of 100 to 1000 nM.

With C[C@H](NC(=O)c1cn(C)c2ccc(-c3ccn4nc(NC(=O)CNCC5CC5)nc4c3)cc12)c1ccc(F)cc1 [Compound 66] the EC50 was < 1 nM.

For C[C@H](NC(=O)c1cn(C)c2ccc(-c3ccn4nc(NC(=O)CN(C)C)nc4c3)cc12)c1ccc(F)cc1 [Compound 40], the EC50 was < 1 nM.

Compound C[C@H](NC(=O)c1cn(C)c2ccc(-c3ccn4nc(N5CCOCC5)nc4c3)cc12)c1ccc(F)cc1 [Compound 219] has an EC50 of 1 to 10 nM.

For C[C@H](NC(=O)c1cn(C)c2ccc(-c3ccn4nc(NC(=O)CN5CCOC[C@H]5C)nc4c3)cc12)c1ccc(F)cc1 [Compound 72], the EC50 was < 1 nM.

For C[C@H](NC(=O)c1cn(C)c2ccc(-c3ccn4nc(NC(=O)CN5CC(C#N)C5)nc4c3)cc12)c1ccc(F)cc1 [Compound 34], the EC50 was < 1 nM.

COCCOCCOCCOCC(=O)Nc1nc2cc(-c3ccc4c(c3)c(C(=O)N[C@@H](C)c3ccc(F)cc3)cn4C)ccn2n1 [Compound 26] was tested, and the EC50 was < 1 nM.

Compound Cn1cc(C(=O)N[C@@H](CF)c2ccc(F)cc2)c2cc(-c3ccn4nc(NC(=O)[C@H]5CCCO5)nc4c3)ccc21 [Compound 104] has an EC50 of 1000 to 10000 nM.

For CCOC(=O)Nc1nc2cc(-c3ccc4c(c3)c(C(=O)N[C@@H](C)c3ccc(F)cc3)cn4C)ccn2n1 [Compound 17], the EC50 was < 1 nM.

Compound CN(C)CC(=O)Nc1nc2cc(-c3ccc4c(c3)c(C(=O)N[C@H]3CCc5ccc(F)cc53)cn4C)ccn2n1 [Compound 123] has an EC50 of 1 to 10 nM.

Cn1cc(C(=O)N2N=CCC2c2ccc(F)cc2)c2cc(-c3ccn4nc(NC(=O)N5CCOCC5)nc4c3)ccc21 (stereo not drawn) [Compound 172] gave an EC50 of 1 to 10 nM.

For C[C@H](NC(=O)c1cn(C)c2ccc(-c3ccn4nc(NC(=O)CC(=O)O)nc4c3)cc12)c1ccc(F)cc1 [Compound 63], the EC50 was 1000 to 10000 nM.

Cn1cc(C(=O)N[C@H]2CCc3ccc(F)cc32)c2cc(-c3ccn4nc(NC(=O)[C@H]5CCCO5)nc4c3)ccc21 [Compound 121] was tested, and the EC50 was < 1 nM.

With Cn1cc(C(=O)N[C@H](c2ccc(F)cc2)C(F)F)c2cc(-c3ccn4nc(NC(=O)C5CC5)nc4c3)ccc21 [Compound 161] the EC50 was < 1 nM.

C[C@H](NC(=O)c1cn(C)c2ccc(-c3ccn4nc(NC(=O)CN5CCOC[C@H]5C)nc4c3)cc12)c1ccc(Cl)cc1 [Compound 81] was tested, and the EC50 was < 1 nM.

C[C@H](NC(=O)c1cn(C)c2ccc(-c3ccn4nc(NC(=O)CN5CCC(N6CCOCC6)CC5)nc4c3)cc12)c1ccc(F)cc1 [Compound 38] was tested, and the EC50 was < 1 nM.

In the case of Cn1nc(C(=O)N[C@@H](CF)c2ccc(F)cc2)c2cc(-c3ccn4nc(NC(=O)C5CC5)nc4c3)ccc21 [Compound 190], the EC50 is reported as < 1 nM.

C[C@@H](c1ccc(F)cc1)N(C)C(=O)c1cn(C)c2ccc(-c3ccn4nc(NC(=O)CN(C)C)nc4c3)cc12 [Compound 174] was tested, and the EC50 was < 1 nM.

Cn1cc(C(=O)N2CCC[C@H]2c2ccc(F)cc2)c2cc(-c3ccn4nc(NC(=O)N5CCOCC5)nc4c3)ccc21 [Compound 153] was tested, and the EC50 was < 1 nM.

With Cn1cc(C(=O)N2CC(F)CC2c2ccc(F)cc2)c2cc(-c3ccn4nc(NC(=O)C5CCCO5)nc4c3)ccc21 (stereo not drawn) [Compound 157] the EC50 was < 1 nM.

Cn1cc(C(=O)N[C@@H](CF)c2ccc(F)cc2)c2cc(-c3ccn4nc(NC(=O)N5CCOCC5)nc4c3)ccc21 [Compound 103] was tested, and the EC50 was < 1 nM.

In the case of Cn1cc(C(=O)N[C@@H](CF)c2ccc(F)cc2)c2cc(-c3ccn4nc(NC(=O)C5CC5(F)F)nc4c3)ccc21 (stereo partly drawn) [Compound 110], the EC50 is reported as < 1 nM.

For COC(C)C(=O)Nc1nc2cc(-c3ccc4c(c3)c(C(=O)N[C@@H](CF)c3ccc(F)cc3)cn4C)ccn2n1 (stereo partly drawn) [Compound 112], the EC50 was < 1 nM.

In the case of CC(C)Nc1nc2cc(-c3ccc4c(c3)c(C(=O)N[C@@H](CF)c3ccc(F)cc3)cn4C)ccn2n1 [Compound 99], the EC50 is reported as < 1 nM.

Work on CC(=O)Nc1nc2cc(-c3ccc4c(c3)c(C(=O)N[C@H]3CCCc5ccc(F)cc53)cn4C)ccn2n1 [Compound 145] yielded an EC50 of 1 to 10 nM.

C[C@H](NC(=O)c1cn(C)c2ccc(-c3ccn4nc(NC(=O)CN5CCN(C)CC5)nc4c3)cc12)c1ccc(F)cc1 [Compound 51] was tested, and the EC50 was < 1 nM.

CC(=O)N1CCN(CC(=O)Nc2nc3cc(-c4ccc5c(c4)c(C(=O)N[C@@H](C)c4ccc(F)cc4)cn5C)ccn3n2)CC1 [Compound 53] was tested, and the EC50 was < 1 nM.

C[C@H](NC(=O)c1cn(C)c2ccc(-c3ccn4nc(NC(=O)CN5CCSCC5)nc4c3)cc12)c1ccc(Cl)cc1 [Compound 87] was tested, and the EC50 was < 1 nM.

C[C@H](NC(=O)c1cn(C)c2ccc(-c3ccn4nc(NC(=O)CN5CCC(O)CC5)nc4c3)cc12)c1ccc(F)cc1 [Compound 6] was tested, and the EC50 was < 1 nM.

In the case of C[C@H](NC(=O)c1cn(C)c2ccc(-c3ccn4nc(NC(=O)CN5CCC(F)(F)CC5)nc4c3)cc12)c1ccc(F)cc1 [Compound 47], the EC50 is reported as < 1 nM.

In the case of CCN(CC)CC(=O)Nc1nc2cc(-c3ccc4c(c3)c(C(=O)N[C@@H](C)c3ccc(F)cc3)cn4C)ccn2n1 [Compound 36], the EC50 is reported as < 1 nM.

For Cn1cc(C(=O)N2CC(F)(F)CC2c2ccc(F)cc2)c2cc(-c3ccn4nc(NC(=O)C5CC5)nc4c3)ccc21 (stereo not drawn) [Compound 158], the EC50 was 1000 to 10000 nM.

In the case of C[C@H](NC(=O)c1cn(C)c2ccc(-c3ccn4nc(NC(=O)N5CCOCC5)nc4c3)cc12)c1ccc(F)cc1 [Compound 116], the EC50 is reported as < 1 nM.

With C[C@H](NC(=O)c1cn(C)c2ccc(-c3ccn4nc(NC(=O)CC5CCCCC5)nc4c3)cc12)c1ccc(F)cc1 [Compound 13] the EC50 was < 1 nM.

With C[C@H](NC(=O)c1cn(C)c2ccc(-c3ccn4nc(N5CCOCC5=O)nc4c3)cc12)c1ccc(F)cc1 [Compound 218] the EC50 was 10 to 100 nM.

Compound C[C@H](NC(=O)c1cn(C)c2ccc(-c3ccn4nc(NC(=O)CN5CCCC(CO)C5)nc4c3)cc12)c1ccc(F)cc1 (stereo partly drawn) [Compound 44] has an EC50 of 1 to 10 nM.

In the case of COCCn1cc(C(=O)N[C@@H](CF)c2ccc(F)cc2)c2cc(-c3ccn4nc(NC(=O)CC#N)nc4c3)ccc21 [Compound 215], the EC50 is reported as 10 to 100 nM.

With CC1CN(CC(=O)Nc2nc3cc(-c4ccc5c(c4)c(C(=O)N[C@@H](C)c4ccc(F)cc4)cn5C)ccn3n2)CCO1 (stereo partly drawn) [Compound 45] the EC50 was < 1 nM.

In the case of C[C@H](NC(=O)c1cn(C)c2ccc(-c3ccn4nc(NC(=O)CN5CC[C@H](F)C5)nc4c3)cc12)c1ccc(F)cc1 [Compound 21], the EC50 is reported as < 1 nM.

For CCNCC(=O)Nc1nc2cc(-c3ccc4c(c3)c(C(=O)N[C@@H](C)c3ccc(F)cc3)cn4C)ccn2n1 [Compound 76], the EC50 was < 1 nM.
